Measurements reported in patent US11584714B2 (priority 2018, dated 2023).
pIC50, pKi: −log10 of the molar value. Where a name gives a salt, the structure may show the parent alone. Read-outs that look alike come from different tables or passages of the source.

How the values were obtained:
Assay type in all cases: biochemical
Lectin Pathway = experiment: Lectin pathway activation assay in human serum (mannan-coated ELISA, C3c detection); conditions: 1% human serum
human α-thrombin = human α-thrombin (Homo sapiens (Human), UniProt P00734); experiment: Enzymatic assay for thrombin (Boc-VPR-AMC substrate); conditions: for pKi: read-out: Thrombin Ki; for Ki: Thrombin Ki (μM)
MASP-2 (CCP1-CCP2-SP) = MASP-2 (CCP1-CCP2-SP) (Homo sapiens (Human), UniProt O00187); experiment: biochemical
MASP-2 (CCP1-CCP2-SP), sequence (O00187 445-686): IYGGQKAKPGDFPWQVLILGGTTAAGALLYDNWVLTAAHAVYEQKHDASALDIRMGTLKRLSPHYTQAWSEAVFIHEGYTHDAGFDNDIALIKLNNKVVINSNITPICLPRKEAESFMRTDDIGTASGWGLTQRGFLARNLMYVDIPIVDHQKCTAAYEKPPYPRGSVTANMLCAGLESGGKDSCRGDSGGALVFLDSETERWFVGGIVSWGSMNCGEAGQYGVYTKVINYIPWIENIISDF

mMASP-2 = mMASP-2 (Mus musculus (Mouse), UniProt Q91WP0); experiment: Enzymatic inhibition of mMASP-2
mMASP-2, sequence (Q91WP0 20-685): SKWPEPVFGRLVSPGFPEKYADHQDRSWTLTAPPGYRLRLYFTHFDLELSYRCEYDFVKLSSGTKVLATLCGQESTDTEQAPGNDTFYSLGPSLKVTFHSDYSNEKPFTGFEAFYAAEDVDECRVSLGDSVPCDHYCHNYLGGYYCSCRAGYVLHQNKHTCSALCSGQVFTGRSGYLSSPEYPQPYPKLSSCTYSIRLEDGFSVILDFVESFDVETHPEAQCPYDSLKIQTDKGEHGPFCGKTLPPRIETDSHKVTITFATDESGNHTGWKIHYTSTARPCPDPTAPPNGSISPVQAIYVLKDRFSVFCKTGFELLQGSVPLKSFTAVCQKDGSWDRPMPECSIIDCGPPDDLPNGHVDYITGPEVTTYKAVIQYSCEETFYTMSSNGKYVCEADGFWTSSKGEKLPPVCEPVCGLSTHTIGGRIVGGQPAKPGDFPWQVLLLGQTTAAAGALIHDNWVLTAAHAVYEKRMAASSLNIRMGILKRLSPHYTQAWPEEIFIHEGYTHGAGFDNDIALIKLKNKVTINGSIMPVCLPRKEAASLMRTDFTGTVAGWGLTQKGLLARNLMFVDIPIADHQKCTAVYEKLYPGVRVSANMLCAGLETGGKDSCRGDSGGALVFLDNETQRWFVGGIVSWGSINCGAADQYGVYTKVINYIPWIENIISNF

[1] = selectivity for MASP-2 inhibition versus thrombin

pIC50 (Lectin Pathway) | Structure (SMILES) | pKi (human α-thrombin) | pKi (MASP-2 (CCP1-CCP2-SP); read-out: MASP-2 Ki) | pKi (mMASP-2; read-out: mMASP-2 Ki) | MASP-2 vs. thrombin selectivity (MASP-2 (CCP1-CCP2-SP); [1]) | further results
4.30 to 5.30 | N=C(N)c1ccc(CNC(=O)[C@@H]2CCN2C(=O)[C@H](N)C2CCCC2)cc1 [compound 1008] | > 6.30 | – | – | – | –
< 4.30 | N=C(N)c1ccc(CNC(=O)[C@@H]2CCN2C(=O)[C@@H](N)C2CCCCC2)cc1 [compound 1018] | – | – | – | – | –
4.30 to 5.30 | N=C(N)c1ccc(CNC(=O)[C@@H]2CCN2C(=O)[C@H](N)Cc2ccccc2)cc1 [compound 1023] | > 6.30 | – | – | – | –
4.30 to 5.30 | N=C(N)c1ccc(CNC(=O)[C@@H]2CCCCN2C(=O)[C@H](N)C2CCCCC2)cc1 [compound 1051] | > 6.30 | – | – | – | –
5.30 to 6.30 | C[C@H](NC(=O)[C@H]1Cc2ccccc2CN1)C(=O)NCc1ccc2c(N)nccc2c1 [compound 1053] | – | – | – | – | –
4.30 to 5.30 | N=C(N)c1ccc(CNC(=O)CNC(=O)[C@H](NCC(=O)O)C2CCCCC2)cc1 [compound 1054] | – | – | – | – | –
4.30 to 5.30 | CC(C)(C)[C@@H](NCC(=O)O)C(=O)N1CC[C@H]1C(=O)NCc1ccc(C(=N)N)cc1 [compound 1055] | > 6.30 | – | – | – | –
< 4.30 | N=C(N)c1ccc(CNC(=O)[C@@H]2CCN2C(=O)[C@@H](Cc2ccccc2)NCC(=O)O)cc1 [compound 1109] | > 6.30 | – | – | – | –
4.30 to 5.30 | N=C(N)c1ccc(CNC(=O)[C@@H]2CCN2C(=O)[C@H](NCC(=O)O)C2CCCCC2)cc1O [compound 1116, ((R)-2-((S)-2-((4-Carbamimidoyl-3-hydroxybenzyl)carbamoyl)azetidin-1-yl)-1-cyclohexyl-2-oxoethyl)glycine] | > 6.30 | – | – | – | –
5.30 to 6.30 | C[C@H](NC(=O)[C@H](NCC(=O)O)C1Cc2ccccc2C1)C(=O)NCc1ccc(C(=N)N)cc1 [compound 1123] | – | – | – | – | –
4.30 to 5.30 | N=C(N)c1ccc(CNC(=O)[C@@H]2CCCCN2C(=O)[C@H](NCC(=O)O)C2CCCCC2)cc1 [compound 1127] | > 6.30 | – | – | – | –
< 4.30 | C[C@H](NC(=O)[C@H](N)C1Cc2ccccc2C1)C(=O)NCc1ccc2nc(N)n(C)c2c1 [compound 1171] | < 4.60 | – | – | – | –
– | Cc1nc(N)ccc1CNC(=O)[C@H](C)NC(=O)[C@H]1C[C@H](Cc2ccc(C)c3ccccc23)CN1 [compound 1479, (2R,4S)—N—((S)-1-(((6-Amino-2-methylpyridin-3-yl)methyl)amino)-1-oxopropan-2-yl)-4-((4-methylnaphthalen-1-yl)methyl)pyrrolidine-2-carboxamide Dihydrochloride] | – | > 6.30 | > 6.30 | **** (≥100-fold) | Ki (human α-thrombin): 10 to 25 µM
– | Cc1nc(N)ccc1CNC(=O)[C@H](C)NC(=O)[C@H]1CC(Cc2ccc(F)cc2)(Cc2ccc(F)cc2)CN1 [compound 1480, (R)—N—((S)-1-(((6-Amino-2-methylpyridin-3-yl)methyl)amino)-1-oxopropan-2-yl)-4,4-bis(4-fluorobenzyl)pyrrolidine-2-carboxamide Di-trifluoroacetate salt] | < 4.60 | > 6.30 | 5.60 to 6.30 | **** (≥100-fold) | –
– | Cc1nc(N)ccc1CNC(=O)[C@H](C)NC(=O)[C@H]1C[C@H](C2(c3ccccc3)CC2)CN1 [compound 1481, (2R,4R)—N—((S)-1-(((6-Amino-2-methylpyridin-3-yl)methyl)amino)-1-oxopropan-2-yl)-4-(1-phenylcyclopropyl)pyrrolidine-2-carboxamide Di-trifluoroacetate salt] | – | > 6.30 | > 6.30 | **** (≥100-fold) | Ki (human α-thrombin): 2.5 to 10 µM
– | C[C@H](NC(=O)[C@H]1C[C@H](Cc2ccccc2Br)CN1)C(=O)NCc1cnc2c(c1)c(Cl)cn2C [compound 1482, (2R,4S)-4-(2-bromobenzyl)-N-((S)-1-(((3-chloro-1-methyl-1H-pyrrolo[2,3-b]pyridin-5-yl)methyl)amino)-1-oxopropan-2-yl)pyrrolidine-2-carboxamide Hydrochloride] | – | > 6.30 | > 6.30 | *** (≥25 to <100-fold) | Ki (human α-thrombin): 0.5 to 2.5 µM
– | Cc1nc(N)ccc1CNC(=O)[C@H](C)NC(=O)[C@H]1C[C@H](Cc2cc(Br)c(Cl)s2)CN1 [compound 1483, (2R,4R)—N—((S)-1-(((6-Amino-2-methylpyridin-3-yl)methyl)amino)-1-oxopropan-2-yl)-4-((4-bromo-5-chlorothiophen-2-yl)methyl)pyrrolidine-2-carboxamide Di-trifluoroacetate salt] | – | > 6.30 | > 6.30 | **** (≥100-fold) | Ki (human α-thrombin): 10 to 25 µM
– | C[C@H](NC(=O)[C@H]1C[C@H](Cc2ccc(F)c(Cl)c2)CN1CC(=O)O)C(=O)NCc1cnc2c(c1)c(Cl)cn2C [compound 1484, 2-((2R,4S)-2-(((S)-1-(((3-Chloro-1-methyl-1H-pyrrolo[2,3-b]pyridin-5-yl)methyl)amino)-1-oxopropan-2-yl)carbamoyl)-4-(3-chloro-4-fluorobenzyl)pyrrolidin-1-yl)acetic acid Trifluoroacetate salt] | < 4.60 | – | 5.60 to 6.30 | – | pKi (MASP-2 (CCP1-CCP2-SP)): 5.60 to 6.30
– | Cc1cnc(NCCc2ccccc2)c(=O)n1CC(=O)NCc1cc(Cl)ccc1-n1cnnn1 [compound 1489, N-(5-Chloro-2-(1H-tetrazol-1-yl)benzyl)-2-(6-methyl-2-oxo-3-(phenethylamino)pyrazin-1(2H)-yl)acetamide] | > 6.30 | > 6.30 | 5.60 to 6.30 | −− (<1.0-fold) | –
– | C[C@H](NC(=O)[C@H]1C[C@H](c2ccccc2)CN1)C(=O)NCc1cc2c(Br)cncc2[nH]1 [compound 1493, (2R,4R)—N—((S)-1-(((4-Bromo-1H-pyrrolo[2,3-c]pyridin-2-yl)methyl)amino)-1-oxopropan-2-yl)-4-phenylpyrrolidine-2-carboxamide Di-trifluoroacetate salt] | – | – | < 4.60 | * (≥1.0 to <5.0-fold) | pKi (MASP-2 (CCP1-CCP2-SP)): 4.60 to 5.00; Ki (human α-thrombin): 10 to 25 µM
– | C[C@H](NC(=O)[C@H]1C[C@H](Cc2ccc(F)c(Cl)c2)CN1)C(=O)NCc1cc2cnccc2[nH]1 [compound 1494, (2R,4S)—N—((S)-1-(((1H-Pyrrolo[3,2-c]pyridin-2-yl)methyl)amino)-1-oxopropan-2-yl)-4-(3-chloro-4-fluorobenzyl)pyrrolidine-2-carboxamide Di-trifluoroacetate salt] | – | > 6.30 | > 6.30 | **** (≥100-fold) | Ki (human α-thrombin): 2.5 to 10 µM
– | C[C@H](NC(=O)[C@H]1C[C@H](c2ccccc2)CN1)C(=O)NCc1cc2ccncc2[nH]1 [compound 1495, (2R,4R)—N—((S)-1-(((1H-Pyrrolo[2,3-c]pyridin-2-yl)methyl)amino)-1-oxopropan-2-yl)-4-phenylpyrrolidine-2-carboxamide Di-trifluoroacetate salt] | < 4.60 | 5.00 to 5.60 | – | ** (≥5.0 to <25-fold) | pKi (mMASP-2): 5.60 to 6.30
– | CCN1CC[C@H](c2ccccc2)C[C@@H]1C(=O)N[C@@H](C)C(=O)NCc1ccc(N)nc1C [compound 1496, (2R,4S)—N—((S)-1-(((6-Amino-2-methylpyridin-3-yl)methyl)amino)-1-oxopropan-2-yl)-1-ethyl-4-phenylpiperidine-2-carboxamide] | < 4.60 | > 6.30 | 5.60 to 6.30 | – | –
– | Cc1nc(N)ccc1CNC(=O)[C@H](C)N(C)C(=O)[C@H]1C[C@H](Cc2ccc(Br)cc2)CN1 [compound 1497, (2R,4S)—N—((S)-1-(((6-Amino-2-methylpyridin-3-yl)methyl)amino)-1-oxopropan-2-yl)-4-(4-bromobenzyl)-N-methylpyrrolidine-2-carboxamide Di-trifluoroacetate salt] | – | > 6.30 | 5.00 to 5.60 | ** (≥5.0 to <25-fold) | Ki (human α-thrombin): 2.5 to 10 µM

Structure (SMILES) | pIC50 (Lectin Pathway) | pKi (human α-thrombin) | pKi (MASP-2 (CCP1-CCP2-SP); read-out: MASP-2 Ki) | pKi (mMASP-2; read-out: mMASP-2 Ki) | MASP-2 vs. thrombin selectivity (MASP-2 (CCP1-CCP2-SP); [1]) | further results
C[C@H](NC(=O)[C@H]1C[C@@H](c2ccccc2)CCN1)C(=O)NCc1ccc(N)nc1 (stereo in doubt) [compound 1025] | 5.30 to 6.30 | < 4.60 | – | – | – | –
N=C(N)c1ccc(CNC(=O)[C@@H]2CCN2C(=O)[C@H](N)c2ccccc2)cc1 [compound 1011, (S)-1-((R)-2-amino-2-phenylacetyl)-N-(4-carbamimidoylbenzyl)azetidine-2-carboxamide] | 5.30 to 6.30 | > 6.30 | > 6.30 | – | – | MASP-2 vs. thrombin selectivity (MASP-2 (CCP1-CCP2-SP); MASP-2 inhibition versus thrombin): −− (less than 1.0-fold)
Nc1nccc2cc(CNC(=O)[C@@H]3CCN3C(=O)[C@H](N)C3CCCCC3)ccc12 [compound 1041, (S)-1-((R)-2-Amino-2-cyclohexylacetyl)-N-((1-aminoisoquinolin-6-yl)methyl)azetidine-2-carboxamide dihydrochloride] | 4.30 to 5.30 | > 6.30 | – | – | – | –
C[C@H](NC(=O)[C@H]1C[C@@H](c2ccccc2)CCN1)C(=O)NCc1cc(Cl)ccc1O [compound 1078] | 5.30 to 6.30 | – | > 6.30 | – | – | –
Cc1cccc(C2CCNC(C(=O)N[C@@H](C)C(=O)NCc3ccc(C(=N)N)cc3)C2)c1 (stereo partly shown) [compound 1098] | > 7.30 | – | > 6.30 | – | – | –
CCNC(=O)COc1ccc(Cl)cc1CNC(=O)[C@H](C)NC(=O)[C@H](N)CCc1ccccc1 [compound 1137, (R)-2-Amino-N—((S)-1-((5-chloro-2-(2-(ethylamino)-2-oxoethoxy)benzyl)amino)-1-oxopropan-2-yl)-4-phenylbutanamide] | < 4.30 | – | – | – | – | –
C[C@H](NC(=O)[C@@H](CCc1ccccc1)NCCCc1ccc(O)cc1)C(=O)NCc1ccc(C(=N)N)cc1 [compound 1145] | 6.30 to 7.30 | – | > 6.30 | – | – | –
Cc1nc(N)ccc1CNC(=O)[C@H](C)NC(=O)[C@H]1C[C@H](Cc2cccc3cnccc23)CN1 [compound 1343, (2R,4S)—N—((S)-1-(((6-Amino-2-methylpyridin-3-yl)methyl)amino)-1-oxopropan-2-yl)-4-(isoquinolin-5-ylmethyl)pyrrolidine-2-carboxamide Di-trifluoroacetate salt] | 6.30 to 7.30 | – | – | – | – | –
